Measured values published in patent publication US6737383B1, “Herbicidal oxadiazolidines” (priority 1999, dated 2004).

Legend:
rape = assay: Test B pre/postemergence rape; assay type: in vivo, Brassica napus
In short: (§1)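 Test chemicals in a non-phytotoxic solvent mixture with surfactant were sprayed preemergence onto planted seeds and postemergence onto plants 2 to 18 cm tall (1- to 4-leaf stage). After twelve to sixteen days in a greenhouse, injury was visually rated against untreated controls from 0 (no effect) to 10 (complete control).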

pigweed = assay: Test B pre/postemergence pigweed; assay type: in vivo, Amaranthus retroflexus
In short: as §1

soybean = assay: Test B pre/postemergence soybean; assay type: in vivo, Glycine max
In short: as §1

crabgrass = assay: Test B pre/postemergence crabgrass; assay type: in vivo, Digitaria sanguinalis
In short: as §1

wheat = assay: Test B pre/postemergence wheat; assay type: in vivo, Triticum aestivum
In short: as §1

blackgrass = assay: Test B pre/postemergence blackgrass; assay type: in vivo, Alopecurus myosuroides
In short: as §1

velvetleaf = assay: Test B pre/postemergence velvetleaf; assay type: in vivo, Abutilon theophrasti
In short: as §1

surinam grass = assay: Test B pre/postemergence surinam grass; assay type: in vivo, Brachiaria decumbens
In short: as §1

bedstraw = assay: Test B pre/postemergence bedstraw; assay type: in vivo, Galium aparine
In short: as §1

morningglory = assay: Test B pre/postemergence morningglory; assay type: in vivo, Ipomoea hederacea
In short: as §1

smallflower flatsedge = assay: Test B flood test smallflower flatsedge; assay type: in vivo, Cyperus difformis; conditions: Pre-emergence
In short: (§2)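 Read-out is a visual response score from 0 (no effect) to 10 (complete control), assigned by comparison with untreated controls. Treatment was applied at the 2-leaf stage, and plants stayed in the greenhouse for twelve to sixteen days before scoring.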

purple nutsedge = assay: Test B pre/postemergence purple nutsedge; assay type: in vivo, Cyperus rotundus
In short: as §1

corn = assay: Test B pre/postemergence corn; assay type: in vivo, Zea mays
In short: as §1

cocklebur = assay: Test B pre/postemergence cocklebur; assay type: in vivo, Xanthium strumarium
In short: as §1

duck salad = assay: Test B flood test duck salad; assay type: in vivo, Heteranthera limosa; conditions: Pre-emergence
In short: as §2

sugar beet = assay: Test B pre/postemergence sugar beet; assay type: in vivo, Beta vulgaris
In short: as §1

rice = assay: Test B flood test rice; assay type: in vivo, Oryza sativa; conditions: Pre-emergence
In short: as §2

wild oat = assay: Test B pre/postemergence wild oat; assay type: in vivo, Avena fatua
In short: as §1

bamyardgrass = assay: Test B flood test barnyardgrass; assay type: in vivo, Echinochloa crus-galli; conditions: Pre-emergence
In short: as §2

giant foxtail = assay: Test B pre/postemergence giant foxtail; assay type: in vivo, Setaria faberii
In short: as §1

[1] = Preemergence, Rate 31 g/ha, visual rating, scale 0 to 10 (0 no effect, 10 complete control)
[2] = Preemergence, Rate 62 g/ha, scale of 0 to 10 where 0 is no effect and 10 is complete control
[3] = Preemergence, Rate 250 g/ha, scale of 0 to 10 where 0 is no effect and 10 is complete control
[4] = Rate 31 g/ha, Postemergence, scale 0 to 10
[5] = Rate 62 g/ha, Postemergence, scale of 0 to 10 where 0 is no effect and 10 is complete control
[6] = Rate 125 g/ha, Preemergence, scale of 0 to 10 where 0 is no effect and 10 is complete control
[7] = Rate 125 g/ha, Postemergence, scale 0 to 10
[8] = Rate 1000 g/ha, scale 0 to 10 (0 no effect, 10 complete control)
[9] = Rate 125 g/ha, flood test species, scale 0 to 10 where 0 is no effect and 10 is complete control
[10] = Rate 250 g/ha, flood-test species, scale 0 to 10, 0 is no effect, 10 is complete control
[11] = Rate 500 g/ha, flood test species, scale 0 to 10 (0 no effect, 10 complete control)

CCOC(=O)C(C)N(C(=O)n1oc(=O)n(-c2c(C)cccc2C)c1=O)c1ccc(F)cc1 (stereo not drawn) [Compound 244]
0: Rape plant response rating (rape; [1]) | Rape plant response rating (rape; [2]) | Rape plant response rating (rape; [3]) | Rape plant response rating (rape; [4]) | Rape plant response rating (rape; [5]) | Rape plant response rating (rape; [6]) | Plant response rating (0 to 10; 0 is no effect, 10 is complete control), Rape (rape; Rate 250 g/ha, Postemergence) | Redroot pigweed plant response rating (pigweed; [1]) | Redroot pigweed plant response rating (pigweed; [2]) | Redroot pigweed plant response rating (pigweed; [3]) | Redroot pigweed plant response rating (pigweed; [4]) | Redroot pigweed plant response rating (pigweed; [5]) | Redroot pigweed plant response rating (pigweed; [6]) | Plant response rating (0 to 10; 0 is no effect, 10 is complete control), Redroot pigweed (pigweed; Rate 250 g/ha, Postemergence) | Soybean plant response rating (soybean; [1]) | Soybean plant response rating (soybean; [2]) | Soybean plant response rating (soybean; [3]) | Soybean plant response rating (soybean; [5]) | Soybean plant response rating (soybean; [6]) | Crabgrass plant response rating (crabgrass; [1]) | Crabgrass plant response rating (crabgrass; [2]) | Crabgrass plant response rating (crabgrass; [3]) | Crabgrass plant response rating (crabgrass; [4]) | Crabgrass plant response rating (crabgrass; [5]) | Crabgrass plant response rating (crabgrass; [6]) | Plant response rating (0 to 10; 0 is no effect, 10 is complete control), Crabgrass (crabgrass; Rate 250 g/ha, Postemergence) | Wheat plant response rating (wheat; [1]) | Wheat plant response rating (wheat; [2]) | Wheat plant response rating (wheat; [3]) | Wheat plant response rating (wheat; [5]) | Wheat plant response rating (wheat; [6]) | Blackgrass plant response rating (blackgrass; [1]) | Blackgrass plant response rating (blackgrass; [2]) | Blackgrass plant response rating (blackgrass; [3]) | Blackgrass plant response rating (blackgrass; [4]) | Blackgrass plant response rating (blackgrass; [5]) | Blackgrass plant response rating (blackgrass; [7]) | Blackgrass plant response rating (blackgrass; [6]) | Plant response rating (0 to 10; 0 is no effect, 10 is complete control), Blackgrass (blackgrass; Rate 250 g/ha, Postemergence) | Velvetleaf plant response rating (velvetleaf; [1]) | Velvetleaf plant response rating (velvetleaf; [2]) | Velvetleaf plant response rating (velvetleaf; [3]) | Velvetleaf plant response rating (velvetleaf; [5]) | Velvetleaf plant response rating (velvetleaf; [6]) | B. signalgrass plant response rating (surinam grass; [1]) | B. signalgrass plant response rating (surinam grass; [2]) | B. signalgrass plant response rating (surinam grass; [3]) | B. signalgrass plant response rating (surinam grass; [4]) | B. signalgrass plant response rating (surinam grass; [5]) | B. signalgrass plant response rating (surinam grass; Rate 125 g/ha, Postemergence, scale 0 (no effect) to 10 (complete control)) | B. signalgrass plant response rating (surinam grass; [6]) | Plant response rating (0 to 10; 0 is no effect, 10 is complete control), B. signalgrass (surinam grass; Rate 250 g/ha, Postemergence) | Bedstraw plant response rating (bedstraw; [1]) | Bedstraw plant response rating (bedstraw; [2]) | Bedstraw plant response rating (bedstraw; [3]) | Bedstraw plant response rating (bedstraw; [4]) | Bedstraw plant response rating (bedstraw; [5]) | Bedstraw plant response rating (bedstraw; [7]) | Bedstraw plant response rating (bedstraw; [6]) | Plant response rating (0 to 10; 0 is no effect, 10 is complete control), Bedstraw (bedstraw; Rate 250 g/ha, Postemergence) | Morningglory plant response rating (morningglory; [1]) | Morningglory plant response rating (morningglory; [2]) | Morningglory plant response rating (morningglory; [3]) | Morningglory plant response rating (morningglory; [4]) | Morningglory plant response rating (morningglory; [5]) | Morningglory plant response rating (morningglory; [6]) | Plant response rating (0 to 10; 0 is no effect, 10 is complete control), Morningglory (morningglory; Rate 250 g/ha, Postemergence) | S. Flatsedge plant response rating (smallflower flatsedge; [8]) | S. Flatsedge plant response rating (smallflower flatsedge; [9]) | S. Flatsedge plant response rating (smallflower flatsedge; [10]) | S. Flatsedge plant response rating (smallflower flatsedge; [11]) | Nutsedge plant response rating (purple nutsedge; [1]) | Nutsedge plant response rating (purple nutsedge; [2]) | Nutsedge plant response rating (purple nutsedge; [3]) | Nutsedge plant response rating (purple nutsedge; [4]) | Nutsedge plant response rating (purple nutsedge; [5]) | Nutsedge plant response rating (purple nutsedge; [6]) | Plant response rating (0 to 10; 0 is no effect, 10 is complete control), Nutsedge (purple nutsedge; Rate 250 g/ha, Postemergence) | Corn plant response rating (corn; [1]) | Corn plant response rating (corn; [2]) | Corn plant response rating (corn; [3]) | Corn plant response rating (corn; [4]) | Corn plant response rating (corn; [5]) | Corn plant response rating (corn; [7]) | Corn plant response rating (corn; [6]) | Plant response rating (0 to 10; 0 is no effect, 10 is complete control), Corn (corn; Rate 250 g/ha, Postemergence) | Cocklebur plant response rating (cocklebur; [1]) | Cocklebur plant response rating (cocklebur; [2]) | Cocklebur plant response rating (cocklebur; [3]) | Cocklebur plant response rating (cocklebur; [4]) | Cocklebur plant response rating (cocklebur; [5]) | Cocklebur plant response rating (cocklebur; [7]) | Cocklebur plant response rating (cocklebur; [6]) | Plant response rating (0 to 10; 0 is no effect, 10 is complete control), Cocklebur (cocklebur; Rate 250 g/ha, Postemergence) | Ducksalad plant response rating (duck salad; [8]) | Ducksalad plant response rating (duck salad; [9]) | Ducksalad plant response rating (duck salad; [10]) | Ducksalad plant response rating (duck salad; [11]) | Sugarbeets plant response rating (sugar beet; [1]) | Sugarbeets plant response rating (sugar beet; [2]) | Sugarbeets plant response rating (sugar beet; [3]) | Sugarbeets plant response rating (sugar beet; [5]) | Sugarbeets plant response rating (sugar beet; [6]) | Rice plant response rating (rice; [8]) | Rice plant response rating (rice; [9]) | Rice plant response rating (rice; [10]) | Rice plant response rating (rice; [11]) | Wild oats plant response rating (wild oat; [1]) | Wild oats plant response rating (wild oat; [2]) | Wild oats plant response rating (wild oat; [3]) | Wild oats plant response rating (wild oat; [5]) | Wild oats plant response rating (wild oat; [6]) | Barnyardgrass plant response rating (bamyardgrass; [8]) | Barnyardgrass plant response rating (bamyardgrass; [9]) | Barnyardgrass plant response rating (bamyardgrass; [10]) | Barnyardgrass plant response rating (bamyardgrass; [11]) | Giant foxtail plant response rating (giant foxtail; [1]) | Giant foxtail plant response rating (giant foxtail; [2]) | Giant foxtail plant response rating (giant foxtail; [3]) | Giant foxtail plant response rating (giant foxtail; [4]) | Giant foxtail plant response rating (giant foxtail; [5]) | Giant foxtail plant response rating (giant foxtail; [6]) | Plant response rating (0 to 10; 0 is no effect, 10 is complete control), Giant foxtail (giant foxtail; Rate 250 g/ha, Postemergence)
